From patent publication US20250091989A1, “SMALL MOLECULE PROTEIN SYNTHESIS MODULATORS” (Interdict Bio, Inc., priority 2023, published 2025)

Assays:
Type in all cases: biochemical
Conditions in all cases: HeLa S3 lysate, sfGFP/mCherry ratio, 2 hrs at 30° C.
KRAS G12D = assay: In vitro transcription-translation (IVTT) reporter assay, KRAS G12D test sequence
Description: (§1) All reporter constructs have been cloned into the pT7CFE1-CHis plasmid (ThermoFisher #88860) using Gibson assembly procedures (NEB #E2611L). The parental pT7CFE1-CHis plasmid contains an EMCV IRES at the 5′UTR for translation initiation, a multiple-cloning site (MCS) for gene insertion, an optional C-terminal His-epitope tag, and polyA sequence in the 3′UTR to regulate mRNA stability. All reporters are designed to be inserted at the MCS to include a red fluorescent protein (mCherry), P2A self-cleaving peptide which releases the preceding mCherry protein product, and a fusion open reading frame containing a 3×FLAG epitope, a peptide sequence of interest (TEST), and green fluorescent protein (sfGFP).
(§2) Construct Plasmid Preparation: All plasmids are isolated from MACH1 cells (ThermoFisher) grown overnight in ampicillin-containing luria broth, and purified using ZymoPure Express Plasmid Midiprep Kit (Zymo Research). Constructs are sequenced verified and diluted to a working concentration of 110 ng/μL.
(§3) HeLa S3 Lysate Preparation: HeLa S3 cell pellets are acquired from Ipracell/Ipratech (Belgium) and shipped as 4 mL frozen cell pellets on dry ice for storage at −80° C. until use. The procedure for lysate preparation is as follows. Prepare 1× Lysis Buffer, cold and stored on ice:
(§4) Each preparation takes 8 cell pellets (4 ml packed volume each, approximately 1.0×10^9 cells per pellet). Thaw cell pellets from −80° C. on ice for 90 mins. Lay pellets horizontally on top of the ice and rotate every 30 mins to ensure even thawing. Once thawed, add 4 mL of cold lysis buffer to each pellet, and using a serological pipet, gently pipet up and down to break up clumps. Incubate resuspended cells in ice for an additional 30 mins (plunged into ice). During 30 min incubation, rinse and RNase-zap (Ambion) glass dounces (use loose pestle “A”), gently dry and place on ice until needed. Prepare RNase-free Eppendorf tubes for spinning and for batch storage. Add batch labels to 1.5-1.7 mL RNase-free microcentrifuge tubes (labeling scheme below). Each batch will have an extra 1.5-1.7 mL RNase-free microcentrifuge tube for 40 μL of lysate, label the top of this tube (labeling scheme below). After 30 min incubation, transfer all 8 mL of cell pellet to dounce. Cell lysis is complete after douncing 100 times. Aliquot cell lysis into 1.5-1.7 mL temporary-microcentrifuge tubes. Place tubes in centrifuge with “fins” out, and spin at 1,200 xg for 5 mins. After the first spin use a 1 mL pipet to resuspend each tube and repeat spin. This acts as an additional lysis step, is more vigorous and increases lysate yield. During second spin get liquid N2 and a fresh conical tube on ice.
(§5) After spin is complete, transfer supernatant (lysate) from microcentrifuge tubes into the 50 mL conical tube and keep on ice. Repeat steps 10-14 for all other cell pellets until completed. Once all cell lysate has been transferred to the 50 mL conical tube pipet to mix so the solution is homogenous. Transfer 1 mL of lysate into batch-labeled microcentrifuge tubes and flash freeze in liquid nitrogen. Be sure to pipet up and down to mix throughout transfer step. Place all tubes in the […] for long-term storage.
(§6) In vitro transcription-translation assay setup: Each assay includes a master mix containing lysate and shared components, a 96-well plate containing compound titrations for testing, a 96-well DNA plate with reporter constructs to be tested, 96-well skirted PCR plates, and 96-well flat-bottom, black, fluorescent assay plates. […]

MYC = assay: In vitro transcription-translation (IVTT) reporter assay, MYC test sequence
Description: as §1, §2, §3, §4, §5, §6

ALK = assay: In vitro transcription-translation (IVTT) reporter assay, ALK test sequence
Description: as §1, §2, §3, §4, §5, §6

Molecule `COc1ccc(C[C@H]2NC[C@H](O)[C@H]2OC(=O)CN)cc1` [V186760, (2R,3S,4S)-4-hydroxy-2-[(4-methoxyphenyl)methyl]pyrrolidin-3-yl 2-aminoacetate] has an IC50 (KRAS G12D) of 20 to 30 µM, an IC50 (MYC) of less than 10 µM and an IC50 (ALK) of less than 10 µM.

With `CC(=O)O[C@@H]1[C@@H](O)CN[C@@H]1Cc1ccc(Cl)cc1` [V187009, (2R,3S,4S)-2-[(4-chlorophenyl)methyl]-4-hydroxypyrrolidin-3-yl acetate; trifluoroacetic acid] the IC50 (KRAS G12D) was less than 10 µM, the IC50 (MYC) was less than 10 µM and the IC50 (ALK) was less than 10 µM.

With `COc1ccc(C[C@H]2NC[C@H](O)[C@H]2OC(=O)C2CC(O)C2)cc1` (stereo partly shown) [V186765] the IC50 (KRAS G12D) was 10 to 20 µM and the IC50 (MYC) was less than 10 µM.

For `COc1ccc(C[C@H]2NC[C@H](O)[C@H]2OC(=O)COCc2ccc3nsnc3c2)cc1` [V187072, (2R,3S,4S)-4-hydroxy-2-[(4-methoxyphenyl)methyl]pyrrolidin-3-yl 2-(2,1,3-benzothiadiazol-5-ylmethoxy)acetate; trifluoroacetic acid], the IC50 (KRAS G12D) was less than 10 µM, the IC50 (MYC) was less than 10 µM and the IC50 (ALK) was less than 10 µM.

Molecule `COc1ccc(C[C@H]2NC[C@H](O)[C@H]2OC(=O)C2COC2)cc1` [V0106, (2R,3S,4S)-4-hydroxy-2-[(4-methoxyphenyl)methyl]pyrrolidin-3-yl oxetane-3-carboxylate] has an IC50 (KRAS G12D) of 20 to 30 µM, an IC50 (MYC) of 10 to 20 µM and an IC50 (ALK) of less than 10 µM.

Work on `COc1ccc(C[C@H]2NC[C@H](O)[C@H]2OC(=O)Cc2cccnc2)cc1` [V187057, (2R,3S,4S)-4-hydroxy-2-[(4-methoxyphenyl)methyl]pyrrolidin-3-yl 2-(pyridin-3-yl)acetate] yielded an IC50 (KRAS G12D) of less than 10 µM, an IC50 (MYC) of less than 10 µM and an IC50 (ALK) of less than 10 µM.

In the case of `CCCC(CCC)C(=O)O[C@@H]1[C@@H](O)CN[C@@H]1Cc1ccc(OC)cc1` [V186780], the IC50 (KRAS G12D) is reported as greater than 30 µM.

Work on `COc1ccc(C[C@H]2NC[C@H](O)[C@H]2OC(=O)c2ccc3onc(N)c3c2)cc1` [V000148, (2R,3S,4S)-4-hydroxy-2-[(4-methoxyphenyl)methyl]pyrrolidin-3-yl 3-amino-1,2-benzoxazole-5-carboxylate] yielded an IC50 (KRAS G12D) greater than 30 µM, an IC50 (MYC) greater than 30 µM and an IC50 (ALK) greater than 30 µM.

`COc1ccc(C[C@H]2NC[C@H](O)[C@H]2OC(=O)CCCCC(C)C)cc1` [V186779] gave an IC50 (KRAS G12D) of less than 10 µM, an IC50 (MYC) of less than 10 µM and an IC50 (ALK) of less than 10 µM.

Work on `C#Cc1ccc(C[C@H]2NC[C@H](O)[C@H]2OC(C)=O)cc1` [V186940] yielded an IC50 (KRAS G12D) of less than 10 µM, an IC50 (MYC) of less than 10 µM and an IC50 (ALK) of less than 10 µM.

`COc1ccc(C[C@H]2NC[C@H](O)[C@H]2OC(=O)CC2CC2)cc1` [V0113, (2R,3S,4S)-4-hydroxy-2-[(4-methoxyphenyl)methyl]pyrrolidin-3-yl 2-cyclopropylacetate] gave an IC50 (KRAS G12D) of less than 10 µM, an IC50 (MYC) of less than 10 µM and an IC50 (ALK) of less than 10 µM.

With `COc1ccc(C[C@H]2NC[C@H](O)[C@H]2OC(=O)Cc2ccccc2)cc1` [V0110, (2R,3S,4S)-4-hydroxy-2-[(4-methoxyphenyl)methyl]pyrrolidin-3-yl 2-phenylacetate] the IC50 (KRAS G12D) was less than 10 µM and the IC50 (MYC) was less than 10 µM.

`COc1ccc(C[C@H]2NC[C@H](O)[C@H]2OC(=O)C2CN(C(=O)C3CCOCC3)C2)cc1` [V186989, (2R,3S,4S)-4-hydroxy-2-[(4-methoxyphenyl)methyl]pyrrolidin-3-yl 1-(oxane-4-carbonyl)azetidine-3-carboxylate; trifluoroacetic acid] was tested, and the IC50 (KRAS G12D) was greater than 30 µM, the IC50 (MYC) was greater than 30 µM and the IC50 (ALK) was greater than 30 µM.

With `COc1ccc(C[C@H]2NC[C@H](O)[C@H]2OC(=O)C2CC3(CNC3)C2)cc1` [V0108, (2R,3S,4S)-4-hydroxy-2-[(4-methoxyphenyl)methyl]pyrrolidin-3-yl 2-azaspiro[3.3]heptane-6-carboxylate] the IC50 (KRAS G12D) was greater than 30 µM and the IC50 (MYC) was greater than 30 µM.

For `COc1ccc(C[C@H]2NC[C@H](O)[C@H]2OC(=O)C2CCOCC2)cc1` [V186763, (2R,3S,4S)-4-hydroxy-2-[(4-methoxyphenyl)methyl]pyrrolidin-3-yl oxane-4-carboxylate], the IC50 (KRAS G12D) was greater than 30 µM and the IC50 (ALK) was greater than 30 µM.

In the case of `COc1ccc(C[C@H]2NC[C@H](O)[C@H]2OC(=O)CN2CC3(C2)CC(F)(F)C3)cc1` [V187067, (2R,3S,4S)-4-hydroxy-2-[(4-methoxyphenyl)methyl]pyrrolidin-3-yl 2-{6,6-difluoro-2-azaspiro[3.3]heptan-2-yl}acetate], the IC50 (KRAS G12D) is reported as 10 to 20 µM and the IC50 (ALK) is reported as less than 10 µM.

With `COc1ccc(C[C@H]2NC[C@H](O)[C@H]2OC(=O)COC2CC(F)(F)C2)cc1` [V187171, (2R,3S,4S)-4-hydroxy-2-[(4-methoxyphenyl)methyl]pyrrolidin-3-yl 2-(3,3-difluorocyclobutoxy)acetate; trifluoroacetic acid] the IC50 (KRAS G12D) was less than 10 µM and the IC50 (ALK) was less than 10 µM.

With `COc1ccc(C[C@H]2NC[C@H](O)[C@H]2OC(=O)Cc2ccc(F)cc2)cc1` [V187054, (2R,3S,4S)-4-hydroxy-2-[(4-methoxyphenyl)methyl]pyrrolidin-3-yl 2-(4-fluorophenyl) acetate] the IC50 (KRAS G12D) was less than 10 µM and the IC50 (MYC) was less than 10 µM.

In the case of `COc1ccc(C[C@H]2NC[C@H](O)[C@H]2OC(=O)CNc2c(NCc3ccccc3)c(=O)c2=O)cc1` [V187517, (2R,3S,4S)-4-hydroxy-2-[(4-methoxyphenyl)methyl]pyrrolidin-3-yl 2-{[2-(benzylamino)-3,4-dioxocyclobut-1-en-1-yl]amino}acetate; trifluoroacetic acid], the IC50 (KRAS G12D) is reported as 20 to 30 µM and the IC50 (ALK) is reported as less than 10 µM.

With `CC(=O)O[C@@H]1[C@@H](O)CN[C@@H]1Cc1ccc(-c2ccccc2)cc1` [V186811] the IC50 (KRAS G12D) was less than 10 µM and the IC50 (MYC) was less than 10 µM.

Work on `COc1ccc(C[C@H]2NC[C@H](O)[C@H]2OC(=O)COC2CC2)cc1` [V187169, (2R,3S,4S)-4-hydroxy-2-[(4-methoxyphenyl)methyl]pyrrolidin-3-yl 2-cyclopropoxyacetate; trifluoroacetic acid] yielded an IC50 (KRAS G12D) of less than 10 µM and an IC50 (MYC) of less than 10 µM.

In the case of `COc1ccc(C[C@H]2NC[C@H](O)[C@H]2OC(=O)[C@H]2CC[C@@H](O)CC2)cc1` [V186822, (2R,3S,4S)-4-hydroxy-2-[(4-methoxyphenyl)methyl]pyrrolidin-3-yl (1 s,4 s)-4-hydroxy cyclohexane-1-carboxylate], the IC50 (KRAS G12D) is reported as greater than 30 µM.

Work on `COc1ccc(C[C@H]2NC[C@H](O)[C@H]2OC(=O)Cc2ccc(F)c(Cl)c2)cc1` [V187164, (2R,3S,4S)-4-hydroxy-2-[(4-methoxyphenyl)methyl]pyrrolidin-3-yl 2-(3-chloro-4-fluorophenyl)acetate; trifluoroacetic acid] yielded an IC50 (KRAS G12D) of less than 10 µM and an IC50 (MYC) of less than 10 µM.

`COc1ccc(C[C@H]2NC[C@H](O)[C@H]2OC(=O)Cc2cccs2)cc1` [V187050, (2R,3S,4S)-4-hydroxy-2-[(4-methoxyphenyl)methyl]pyrrolidin-3-yl 2-(thiophen-2-yl)acetate] was tested, and the IC50 (MYC) was less than 10 µM and the IC50 (ALK) was less than 10 µM.

`COc1ccc(C[C@H]2NC[C@H](O)[C@H]2OC(=O)CCC2C(=O)N(C)CC(=O)N2C)cc1` (stereo partly drawn) [V186871, (2R,3S,4S)-4-hydroxy-2-[(4-methoxyphenyl)methyl]pyrrolidin-3-yl 3-(1,4-dimethyl-3,6-dioxopiperazin-2-yl)propanoate; trifluoroacetic acid] showed an IC50 (KRAS G12D) greater than 30 µM and an IC50 (MYC) of 20 to 30 µM.

`COc1ccc(C[C@H]2NC[C@H](O)[C@H]2OC(=O)[C@H]2CN(Cc3ccccc3)CC23CNC3)cc1` [V186718, (2R,3S,4S)-4-hydroxy-2-[(4-methoxyphenyl)methyl]pyrrolidin-3-yl (8R)-6-benzyl-2,6-diazaspiro[3.4]octane-8-carboxylate] gave an IC50 (KRAS G12D) greater than 30 µM and an IC50 (ALK) greater than 30 µM.

`COc1ccc(C[C@H]2NC[C@H](O)[C@H]2OC(=O)C2CCCS2)cc1` (stereo partly drawn) [V186774, (2R,3S,4S)-4-hydroxy-2-[(4-methoxyphenyl)methyl]pyrrolidin-3-yl thiolane-2-carboxylate] gave an IC50 (KRAS G12D) greater than 30 µM and an IC50 (MYC) of 20 to 30 µM.

`COc1ccc(C[C@H]2NC[C@H](O)[C@H]2OC(=O)C2CSSC2)cc1` [V186868, (2R,3S,4S)-4-hydroxy-2-[(4-methoxyphenyl)methyl]pyrrolidin-3-yl 1,2-dithiolane-4-carboxylate; trifluoroacetic acid] showed an IC50 (KRAS G12D) greater than 30 µM and an IC50 (ALK) greater than 30 µM.
